Data reported in PubChem BioAssay AID1845207 (Molecular Pharmacology Branch, DTP, NCI, 2023).
pIC50: −log10 of the molar value. Several values for one entry are separate records, joined by “and”; a condition that tells them apart may be missing. Identical values can stand only once.

Test system: NCI-H1876 tumor spheroid viability
Test: Anticancer human tumor NCI-H1876 cell line growth inhibition;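 further: spheroids exposed to compounds for seven days before the viability read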;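 on viability, T/C: percent of DMSO vehicle control viability so 100% = vehicle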
Conditions: spheroids with HUVEC and MSC; for viability, T/C: stronger effect = lower value
Description: Multicellular complex tumor spheroid response to DNA repair inhibitors in combination with DNA-damaging drugs
This study explores the anticancer activities of DNA-damaging drugs and inhibitors of DNA damage repair, both as single agents and in combinations. Complex tumor spheroids comprised of malignant cells, endothelial cells and mesenchymal stem cells served as an in vitro model for human solid tumors. This model system incorporates physiologically relevant features and patient-derived or established malignant cell lines with clinically relevant genetic alterations from many tumor types. Twenty-six patient-derived or established malignant cell lines were evaluated representing sarcoma, melanoma, small cell lung cancer (SCLC), non-small cell lung cancer (NSCLC), as well as bladder, ovarian and pancreatic cancers. The concentration ranges selected for each drug and investigational agent were based upon clinically achievable concentrations if the clinical Cmax of the agent was known.
Compounds. The drugs and compounds olaparib (NSC753686), talazoparib (NSC767125), berzosertib (NSC777718), elimusertib (NSC800525), nedisertib (NSC802822), VX-984 (NSC792969), AZD-1390 (NSC803789), temozolomide (NSC362856), topotecan (NSC609699), trabectedin (NSC813783), staurosporine (NSC755774), and gemcitabine (NSC613327) were obtained from the National Cancer Institute (NCI) Developmental Therapeutics Program Chemical Repository. The FDA-approved anticancer drug set is available from the Developmental Therapeutics Program at https://dtp.cancer.gov/organization/dscb/obtaining/available_plates.htm. […] The stock solutions were prepared in dimethyl sulfoxide (DMSO, Sigma-Aldrich, St. Louis, MO, cat. D2650) at 400-fold the tested concentration and stored at -70 degrees C. Prior to their use, the stock solutions were diluted in fresh medium and the final DMSO concentration in the assay was 0.25% (v/v). All drugs and investigational agents were tested over a range starting from a high concentration at or near the clinical Cmax and decreasing in half-log increments. If the clinical Cmax for an agent had not been determined, the highest concentration tested was 10 microM.
Cell Lines. The patient-derived cancer cell (PDC) lines: 156681-154-R-J1-PDC, 283228-195-R-J1-PDC, 287954-098-R-J1-PDC, 292921-168-R-J2-PDC, 349418-098-R-PDC, 425362-245-T-J1-PDC, 556581-035-R-J1-PDC, and BL0293-F563-PDC were received from the NCI Patient-Derived Models Repository (PDMR, https://pdmr.cancer.gov). The established cell lines HS-SY-2 (RRID:CVCL_8719), MPNST, and SYO-1 (RRID:CVCL_7146) were obtained from the Sloan Kettering Institute. The alveolar soft parts sarcoma cell line ASPS-1 (RRID:CVCL_S738) was established at the NCI and grown from internal seed stocks. The following established cell lines were purchased from the American Type Culture Collection (ATCC, Manassas, VA): G-401 (ATCC, cat. CRL-1441, RRID:CVCL_0270), SW982 (ATCC, cat. HTB-93, RRID:CVCL_1734), VA-ES-BJ (ATCC, cat. CRL-2138, RRID:CVCL_1785), NCI-H719 (ATCC, cat. CRL-5837, RRID:CVCL_1582), NCI-H196 (ATCC, cat. CRL-5823, RRID:CVCL_1509), NCI-H841 (ATCC, cat. CRL-5845, RRID:CVCL_1595), NCI-H1618 (ATCC, cat. CRL-5879, RRID:CVCL_1480), NCI-H1876 (ATCC, cat. CRL-5902, RRID:CVCL_1503), DMS 114 (ATCC, cat. CRL-2066; RRID:CVCL_1174), NCI-H211 (ATCC, cat. CRL-5824; RRID:CVCL_1529), and SW 1271 (ATCC, cat. CRL-2177, RRID:CVCL_1716). The small cell lung cancer cell line COR-L88 was purchased from Sigma-Aldrich (cat. 92031917-1VL, RRID:CVCL_1141). The non-small cell lung cancer cell lines NCI-H226 (RRID:CVCL_1544) and NCI-H322M (RRID:CVCL_1557) were established at the NCI and grown from internal seed stocks. Pooled donor human umbilical vein endothelial cells (HUVEC, Lonza, cat. CC-2519) and human mesenchymal stem cells (hMSC, Lonza, cat. PT-2501) were purchased from Lonza (Walkersville, MD).
Cell Culture. All cells were maintained in an incubator at 37 degrees C and 5% CO2 with 95% humidity. […]

## O=C(c1cc(Cc2n[nH]c(=O)c3ccccc23)ccc1F)N1CCN(C(=O)C2CC2)CC1 + COc1cc2c(cc1O)CCNC21CSC2c3c(OC(C)=O)c(C)c4c(c3C(COC1=O)N1C(O)C3Cc5cc(C)c(OC)c(O)c5C(C21)N3C)OCO4
Curve of first compound, second compound 30 pM
  pIC50: 5.48
Curve of first compound, second compound 94.9 pM
  pIC50: 5.72
Curve of first compound, second compound 0.0003 µM
  pIC50: > 7.02
Curve of first compound, second compound 0.000949 µM
  pIC50: > 7.02
Curve of first compound, second compound 0.003 µM
  pIC50: > 7.02
Second compound 30 pM, first compound 0.0949 µM
  viability, T/C: 99.7%
Second compound 30 pM, first compound 0.3 µM
  viability, T/C: 98.4%
Second compound 30 pM, first compound 0.949 µM
  viability, T/C: 92.7%
Second compound 30 pM, first compound 3 µM
  viability, T/C: 53.4%
Second compound 30 pM, first compound 9.49 µM
  viability, T/C: 14.2%
Second compound 30 pM, first compound 30 µM
  viability, T/C: 9.96%
Second compound 94.9 pM, first compound 0.0949 µM
  viability, T/C: 85.8%
Second compound 94.9 pM, first compound 0.3 µM
  viability, T/C: 82.7%
Second compound 94.9 pM, first compound 0.949 µM
  viability, T/C: 70.5%
Second compound 94.9 pM, first compound 3 µM
  viability, T/C: 37.2%
Second compound 94.9 pM, first compound 9.49 µM
  viability, T/C: 7.9%
Second compound 94.9 pM, first compound 30 µM
  viability, T/C: 7.02%
Second compound 0.0003 µM, first compound 0.0949 µM
  viability, T/C: 15.1%
Second compound 0.0003 µM, first compound 0.3 µM
  viability, T/C: 16.9%
Second compound 0.0003 µM, first compound 0.949 µM
  viability, T/C: 12.9%
Second compound 0.0003 µM, first compound 3 µM
  viability, T/C: 7.99%
Second compound 0.0003 µM, first compound 9.49 µM
  viability, T/C: 5.74%
Second compound 0.0003 µM, first compound 30 µM
  viability, T/C: 4.63%
Second compound 0.000949 µM, first compound 0.0949 µM
  viability, T/C: 2.17%
Second compound 0.000949 µM, first compound 0.3 µM
  viability, T/C: 2.25%
Second compound 0.000949 µM, first compound 0.949 µM
  viability, T/C: 2.87%
Second compound 0.000949 µM, first compound 3 µM
  viability, T/C: 2.49%
Second compound 0.000949 µM, first compound 9.49 µM
  viability, T/C: 2.27%
Second compound 0.000949 µM, first compound 30 µM
  viability, T/C: 2.54%
Second compound 0.003 µM, first compound 0.0949 µM
  viability, T/C: 6.83%
Second compound 0.003 µM, first compound 0.3 µM
  viability, T/C: 0.52%
Second compound 0.003 µM, first compound 0.949 µM
  viability, T/C: 0.47%
Second compound 0.003 µM, first compound 3 µM
  viability, T/C: 0.53%
Second compound 0.003 µM, first compound 9.49 µM
  viability, T/C: 0.55%
Second compound 0.003 µM, first compound 30 µM
  viability, T/C: 0.95%

## CC1COCCN1c1cc(-c2ccnn2C)c2ccnc(-c3ccn[nH]3)c2n1 (configuration not stated)
Compound 0.0316 µM
  viability, T/C: 54% and 61.9% and 73.3%
Compound 0.1 µM
  viability, T/C: 32.2% and 41.5% and 41.2%
Compound 0.316 µM
  viability, T/C: 18.1% and 48.3% and 20.1%
Compound 1 µM
  viability, T/C: 6.97% and 20% and 7.21%
Compound 3.16 µM
  viability, T/C: 3.09% and 11.9% and 3.22%
Compound 10 µM
  viability, T/C: 2.37% and 7.33% and 2.52%
Curve of compound
  pIC50: 7.41 and 6.92 and 7.13

## COc1cc2c(cc1O)CCNC21CSC2c3c(OC(C)=O)c(C)c4c(c3C(COC1=O)N1C(O)C3Cc5cc(C)c(OC)c(O)c5C(C21)N3C)OCO4 (configuration not stated)
Compound 30 pM
  viability, T/C: 102% [middle of 10 runs]
Compound 94.9 pM
  viability, T/C: 90.2% [middle of 10 runs]
Compound 0.000949 µM
  viability, T/C: 2.68% [middle of 10 runs]
Compound 0.003 µM
  viability, T/C: 0.78% [middle of 10 runs]
Compound alone, run of 12/16/2019
  IC50: 0.197 nM [middle of 10 runs]
